From US20240300924A1, “PYRAZOLE DERIVATIVE COMPOUND, ADHESIVE COMPOSITION COMPRISING SAME, AND ADHESIVE FILM COMPRISING SAME” (LG CHEM, LTD., priority 2021, published 2024)
“Also recorded” adds a separate entry of the source.

What was measured:
Type in all cases: physicochemical
[1] = Maximum absorption wavelength of the adhesive film (thin film), UV-vis; details: adhesive film 22 μm to 23 μm; UV-vis apparatus (Shimazu UV-3600)
From the text: (§1) Based on 100 parts by weight a solid content except for a solvent in an adhesive composition, 95.4 parts by weight of an adhesive material (AD-701 solid content, LG Chem.), 0.29 part by weight of Compound P1, 0.1 part by weight of an isocyanate-based cross-linking agent (T39M, Soken Chemical & Engineering Co., Ltd.), 0.2 part by weight of a silane-based coupling agent (T-789J, Soken Chemical & Engineering Co., Ltd.), 0.5 part by weight of an antioxidant (Kinox-80, Hannong Chemicals Inc.), 1.5 parts by weight of an antistatic agent (FC-4400, 3M), 2 parts by weight of a hindered amine light stabilizer (Tinuvin 123, BASF SE), and 0.001 part by weight of a catalyst (dibutyltin dilaurate, Sigma-Aldrich) were added to the adhesive composition, the solvent (methyl ethyl ketone, MEK) was added thereto in an amount of 25 parts by weight based on the total parts by weight of the adhesive composition, and a release layer (PET) was coated with the adhesive composition mixed using a mixer (Shaker, SKC 6100, JEIO Tech.) to have a thickness of 22 μm to 23 μm using a knife bar coating apparatus (KP-3000, Kipae E&T Co., Ltd.), thereby preparing an adhesive film. After coating, the release layer was removed, and the adhesive film and a binder resin film (TAC: cellulose triacetate) were sequentially laminated on glass through lamination, thereby producing a sample.
(§2) The maximum absorption wavelength λmax (nm) of each of the adhesive composition and the adhesive film was measured using a UV-vis apparatus (Shimazu UV-3600). In addition, the transmittance of the sample for light with a wavelength of 390 to 450 nm was measured by the UV-vis apparatus (Shimazu UV-3600). Under conditions of light fastness 55,600 lx*48 hours; under conditions of heat resistance 80° C. and for 500 hours; or under conditions of moisture resistance 60° C., 90% RH and for 500 hours, the sample was each exposed, and then the transmittance for light with a wavelength of 390 to 450 nm was re-measured. ΔT was calculated by dividing the value obtained by […] by the transmittance value immediately after the sample was produced, and the results under the evaluation conditions are shown in Table 1. Furthermore, the transmittance of the sample for light in a region with a wavelength of 450 nm or more was measured by the UV-vis apparatus (Shimazu UV-3600). Further, the solubility of Compound p1 to methyl ethyl ketone (MEK) was measured under conditions of 1 atm and room temperature.
(§3) Experiments were performed under the same conditions as in Example 1, except that Compounds P3 to P10, Compound P15 and Comparative Compounds Z1 and Z2 were used instead of Compound P1, respectively, in Example 1, and the experimental results are shown in the following Table 1.

[2] = Maximum absorption wavelength of the adhesive composition (solution), UV-vis; details: adhesive composition in MEK; UV-vis apparatus (Shimazu UV-3600)
From the text: as §1, §2, §3

[3] = Solubility of compound in methyl ethyl ketone (MEK); details: solubility to 10 g of methyl ethyl ketone; 1 atm and room temperature
Experimental: as §2
• ◯: 0.3 wt. % or more • Δ: more than 0.1 wt. % and less than 0.3 wt. % • X: 0.1 wt. % or less

[4] = Light fastness of adhesive film sample (change in transmittance ΔT); details: ΔT of transmittance for light of 390 to 450 nm; adhesive film sample with 0.29 part by weight compound; 55,600 lx*48 hours
From the text: as §1, §2
(§4) ΔT (%)={(transmittance measured immediately after the optical film was prepared−transmittance re-measured after the optical film is exposed to each condition of light fastness, heat resistance, and moisture resistance)/transmittance measured immediately after the optical film is prepared}×100
(§5) • ◯: ΔT 1.5% or less • Δ: ΔT more than 1.5% and 3% or less • X: ΔT more than 3%
(§6) The light fastness, heat resistance and moisture resistance were evaluated as ◯, Δ, and X based on whether the ΔT was 1.5% or less, more than 1.5% and 3% or less, or more than 3%, respectively.

[5] = Wavelength compatibility (transmittance of sample in region with 450 nm or more); details: for Wavelength compatibility: transmittance of adhesive film sample in region with wavelength of 450 nm or more; for wavelength compatibility (in words): verbal assessment
Experimental: as §2
• ◯: transmittance of 90% or more in region with 450 nm or more • Δ: transmittance of 80% or more in region with 450 nm or more • X: transmittance of 80% or less in region with 450 nm or more
The wavelength compatibility was evaluated as ◯, Δ, and X based on whether the transmittance in a region with 450 nm or more was 90% or more, 80% or more, or 80% or less, respectively.

[6] = Moisture resistance of adhesive film sample (change in transmittance ΔT); details: ΔT of transmittance for light of 390 to 450 nm, 60° C., 90% RH for 500 hours
From the text: as §1, §2, §4, §5, §6

[7] = Heat resistance of adhesive film sample (change in transmittance ΔT); details: ΔT of transmittance for light of 390 to 450 nm, 80° C. for 500 hours
From the text: as §1, §2, §4, §5, §6

[8] = Solution-phase UV-Vis spectrum (FIG. 2), wavelength distribution; details: P3 compared with Comparative Compound Z2
From the text: FIG. 2 illustrates the solution-phase UV-Vis spectra of Compound P3 according to an exemplary embodiment of the present disclosure and Comparative Compound Z2 used in Comparative Example 2.
Since the compound according to an exemplary embodiment of the present disclosure may improve the light blocking efficiency or reduce the reflectance to external light by strongly absorbing light, the compound is excellent in wavelength compatibility in being included in an optical film. The wavelength compatibility can be confirmed by the wavelength distribution and the optimization appearing in the UV-Vis spectrum. For example, FIG. 2 illustrates the solution-phase UV-Vis spectra of Compound P3 according to an exemplary embodiment of the present disclosure and Comparative Compound Z2 used in Comparative Example 2. In FIG. 2, the dotted line is the solution-phase UV-Vis spectrum for Comparative Compound Z2, and the solid line is the solution-phase UV-Vis spectrum for Compound P3 according to an exemplary embodiment of the present disclosure.

Cc1ccc(-n2nc(C(C)C)c(C=C3C(=O)N(C4CCCCC4)C(=O)N(C4CCCCC4)C3=O)c2O)c(C)c1 [Compound P10]
λmax (nm) (Thin film) [1]: 398 nm | λmax (nm) (Solution) [2]: 403 nm | MEK solubility [3]: ∘ | Light fastness [4]: ∘ | Wavelength compatibility [5]: ∘ | Moisture resistance [6]: ∘ | Heat resistance [7]: ∘

O=C1C(=Cc2c(-c3ccccc3)nn(-c3ccccc3)c2O)C(=O)N(C2CCCCC2)C(=O)N1C1CCCCC1 [Compound P5]
λmax (nm) (Thin film) [1]: 406 nm | λmax (nm) (Solution) [2]: 407 nm | MEK solubility [3]: Δ (more than 0.1 wt. % and less than 0.3 wt. %) | Light fastness [4]: Δ (ΔT more than 1.5% and 3% or less) | Wavelength compatibility [5]: ∘ | Moisture resistance [6]: ∘ | Heat resistance [7]: ∘

Cc1ccc(-n2nc(C)c(C=C3C(=O)N(C4CCCCC4)C(=O)N(C4CCCCC4)C3=O)c2O)c(C)c1 [Compound P4]
λmax (nm) (Thin film) [1]: 399 nm | λmax (nm) (Solution) [2]: 403 nm | MEK solubility [3]: ∘ | Light fastness [4]: ∘ | Wavelength compatibility [5]: ∘ | Moisture resistance [6]: ∘ | Heat resistance [7]: ∘

Cc1ccccc1-n1nc(C(C)C)c(C=C2C(=O)N(c3ccccc3)C(=O)N(c3ccccc3)C2=O)c1O [Compound P15]
λmax (nm) (Thin film) [1]: 398 nm | λmax (nm) (Solution) [2]: 402 nm | MEK solubility [3]: Δ (more than 0.1 wt. % and less than 0.3 wt. %) | Light fastness [4]: ∘ | Wavelength compatibility [5]: ∘ | Moisture resistance [6]: ∘ | Heat resistance [7]: ∘

Cc1nn(-c2ccccc2)c(O)c1C=C1C(=O)N(C2CCCCC2)C(=O)N(C2CCCCC2)C1=O [Compound P1]
λmax (nm) (Thin film) [1]: 407 nm | λmax (nm) (Solution) [2]: 411 nm | MEK solubility [3]: Δ (more than 0.1 wt. % and less than 0.3 wt. %) | Light fastness [4]: Δ (ΔT more than 1.5% and 3% or less) | Wavelength compatibility [5]: ∘ | Moisture resistance [6]: ∘ | Heat resistance [7]: Δ (ΔT more than 1.5% and 3% or less)

Cc1ccc(-n2nc(-c3ccccc3)c(C=C3C(=O)N(C4CCCCC4)C(=O)N(C4CCCCC4)C3=O)c2O)c(C)c1 [Compound P7]
λmax (nm) (Thin film) [1]: 399 nm | λmax (nm) (Solution) [2]: 399 nm | MEK solubility [3]: ∘ | Light fastness [4]: ∘ | Wavelength compatibility [5]: ∘ | Moisture resistance [6]: ∘ | Heat resistance [7]: ∘

Cc1ccccc1-n1nc(C(C)C)c(C=C2C(=O)N(C3CCCCC3)C(=O)N(C3CCCCC3)C2=O)c1O [Compound P9]
λmax (nm) (Thin film) [1]: 399 nm | λmax (nm) (Solution) [2]: 403 nm | MEK solubility [3]: ∘ | Light fastness [4]: ∘ | Wavelength compatibility [5]: ∘ | Moisture resistance [6]: ∘ | Heat resistance [7]: ∘

CC(C)c1nn(-c2ccccc2)c(O)c1C=C1C(=O)N(C2CCCCC2)C(=O)N(C2CCCCC2)C1=O [Compound P8]
λmax (nm) (Thin film) [1]: 408 nm | λmax (nm) (Solution) [2]: 406 nm | MEK solubility [3]: Δ (more than 0.1 wt. % and less than 0.3 wt. %) | Light fastness [4]: ∘ | Wavelength compatibility [5]: ∘ | Moisture resistance [6]: ∘ | Heat resistance [7]: Δ (ΔT more than 1.5% and 3% or less)

Cc1ccccc1-n1nc(-c2ccccc2)c(C=C2C(=O)N(C3CCCCC3)C(=O)N(C3CCCCC3)C2=O)c1O [Compound P6]
λmax (nm) (Thin film) [1]: 400 nm | λmax (nm) (Solution) [2]: 400 nm | MEK solubility [3]: Δ (more than 0.1 wt. % and less than 0.3 wt. %) | Light fastness [4]: ∘ | Wavelength compatibility [5]: ∘ | Moisture resistance [6]: ∘ | Heat resistance [7]: Δ (ΔT more than 1.5% and 3% or less)

CC1=NN(c2ccccc2)C(=O)/C1=C\c1c(C)nn(-c2ccccc2)c1O [Comparative Compound Z2, reference compound]
λmax (nm) (Thin film) [1]: 403 nm | λmax (nm) (Solution) [2]: 405 nm | MEK solubility [3]: ∘ | Light fastness [4]: ∘ | wavelength compatibility (in words) [5]: remarkably deteriorates compared to Examples 1 to 10 | Moisture resistance [6]: ∘ | Heat resistance [7]: ∘

Cc1nn(-c2ccccc2)c(O)c1C=C1C(=O)NC(=O)NC1=O [Comparative Compound Z1, reference compound]
λmax (nm) (Thin film) [1]: 425 nm | λmax (nm) (Solution) [2]: 412 nm | Wavelength compatibility [5]: Δ (transmittance of 80% or more in region with 450 nm or more) | Moisture resistance [6]: Δ (ΔT more than 1.5% and 3% or less)

Cc1ccccc1-n1nc(C)c(C=C2C(=O)N(C3CCCCC3)C(=O)N(C3CCCCC3)C2=O)c1O [Compound P3]
λmax (nm) (Thin film) [1]: 400 nm | wavelength distribution in solution-phase UV-Vis spectrum [8]: narrower wavelength distribution than Comparative Compound Z2; also recorded: wavelength distribution narrower and more optimized than Comparative Compound Z2 | λmax (nm) (Solution) [2]: 404 nm | MEK solubility [3]: ∘ | Light fastness [4]: ∘ | Wavelength compatibility [5]: ∘ | wavelength compatibility (in words) [5]: excellent wavelength compatibility | Moisture resistance [6]: ∘ | Heat resistance [7]: ∘
